# Measured values taken from patent US20260184697A1, “EZH1/2 INHIBITOR, PREPARATION THEREOF, AND USE THEREOF IN ANTI-TUMOR THERAPY” (JIANGSU TASLY DIYI PHARMACEUTICAL CO., LTD., priority 2022, published 2026).
# Molecular target: T1, EZH2/SUZ/EED (Homo sapiens, UniProt O75530+Q15022+Q15910)
# T1 construct: purchased BPS 51003
# Assay: Inhibitory effect on EZH2 by the MTase-Glo method (Test Example 1)
# Assay type: biochemical
# Conditions: EZH2/SUZ/EED 6.25 nM, H3 peptide 10 μM, SAM 3 μM, 30° C. 3 h, read-out: Test Example 1 WT EZH2 IC50
# Procedure: (§1) The compound was dissolved in DMSO, and the compound was serially diluted using ECHO665 and transferred to a 384-well reaction plate (Corning, 3824). A sample containing only DMSO was added as a positive control (maximum signal control) and a negative control (minimum signal control), while ensuring that the final DMSO content in each reaction well was 0.5%. The protein was configured in reaction buffer (50 mM Bicine, 0.01% Triton X-100, 1 mM DTT, 0.01% BSA, pH 7.6), such that the final reaction concentrations of EZH2/SUZ/EED (BPS, 51003) protein solution and EZH1/SUZ/EED (BPS, 51006) were 6.25 nM and 25 nM, respectively. The negative control (minimum signal control) used an equal amount of buffer instead of protein solution. The prepared protein solution was added to the 384-well reaction plate and pre-incubated at room temperature for 15 minutes. The mixture of the substrate H3 peptide fragment (custom-synthesized by GenScript, biotinylated Histone H3(21-44) peptide ([…]-GG-K(Biotin)-OH)) prepared in the reaction buffer and SAM (Promega, V7601) was added into the 384-well plate, such that the final reaction concentration of H3 peptide fragment was 10 μM, and the final concentration of SAM was 3 μM. The mixture was centrifuged at 1000 rpm for 1 min. The 384-well reaction plate was placed in a constant temperature shaker and incubate at 30° C. for 3 h at a speed of 300 rpm. Then the detection reagent was added according to the experimental process of the kit MTase-Glo (Promega, V7601) and incubated.
# (§2) After incubation, read with BMG PHERAStar. The luminescence signals obtained by positive control (maximum signal control) and negative control (minimum signal control) were normalized to obtain the inhibition rate of different concentrations of compounds. Then, the IC50 of the compound on the enzyme activity inhibition was calculated by GraphPad Prism 6 with log(inhibitor) vs. response-Variable slope model fitting. The fitting equation is: Y=Bottom+(Top−Bottom)/(1+10^((Log IC50−X)*HillSlope)), wherein Y represents the known percentage remaining enzyme activity, and X represents the known activity after Log compound concentration.
# T1 sequence (Q15910 2-746 limits assumed): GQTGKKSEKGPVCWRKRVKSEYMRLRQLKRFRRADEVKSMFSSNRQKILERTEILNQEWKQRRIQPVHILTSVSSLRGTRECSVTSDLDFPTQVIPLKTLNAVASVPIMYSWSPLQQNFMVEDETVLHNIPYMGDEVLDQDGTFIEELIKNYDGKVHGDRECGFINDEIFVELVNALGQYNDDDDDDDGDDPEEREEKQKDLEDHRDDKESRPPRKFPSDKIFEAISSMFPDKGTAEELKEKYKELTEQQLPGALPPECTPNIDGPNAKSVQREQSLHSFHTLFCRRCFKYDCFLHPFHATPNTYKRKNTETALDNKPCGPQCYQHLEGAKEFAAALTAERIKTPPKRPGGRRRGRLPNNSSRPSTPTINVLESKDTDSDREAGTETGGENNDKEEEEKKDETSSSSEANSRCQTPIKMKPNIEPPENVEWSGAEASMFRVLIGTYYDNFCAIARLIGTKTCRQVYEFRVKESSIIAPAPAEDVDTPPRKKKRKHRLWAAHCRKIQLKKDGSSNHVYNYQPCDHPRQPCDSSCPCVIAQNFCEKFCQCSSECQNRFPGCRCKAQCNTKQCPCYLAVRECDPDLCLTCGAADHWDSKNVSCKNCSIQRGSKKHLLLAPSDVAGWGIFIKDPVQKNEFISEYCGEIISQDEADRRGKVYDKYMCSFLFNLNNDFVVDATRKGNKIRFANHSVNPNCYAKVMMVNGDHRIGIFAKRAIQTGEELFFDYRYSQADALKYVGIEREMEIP
# T1 sequence (Q15022 2-739 partner limits assumed): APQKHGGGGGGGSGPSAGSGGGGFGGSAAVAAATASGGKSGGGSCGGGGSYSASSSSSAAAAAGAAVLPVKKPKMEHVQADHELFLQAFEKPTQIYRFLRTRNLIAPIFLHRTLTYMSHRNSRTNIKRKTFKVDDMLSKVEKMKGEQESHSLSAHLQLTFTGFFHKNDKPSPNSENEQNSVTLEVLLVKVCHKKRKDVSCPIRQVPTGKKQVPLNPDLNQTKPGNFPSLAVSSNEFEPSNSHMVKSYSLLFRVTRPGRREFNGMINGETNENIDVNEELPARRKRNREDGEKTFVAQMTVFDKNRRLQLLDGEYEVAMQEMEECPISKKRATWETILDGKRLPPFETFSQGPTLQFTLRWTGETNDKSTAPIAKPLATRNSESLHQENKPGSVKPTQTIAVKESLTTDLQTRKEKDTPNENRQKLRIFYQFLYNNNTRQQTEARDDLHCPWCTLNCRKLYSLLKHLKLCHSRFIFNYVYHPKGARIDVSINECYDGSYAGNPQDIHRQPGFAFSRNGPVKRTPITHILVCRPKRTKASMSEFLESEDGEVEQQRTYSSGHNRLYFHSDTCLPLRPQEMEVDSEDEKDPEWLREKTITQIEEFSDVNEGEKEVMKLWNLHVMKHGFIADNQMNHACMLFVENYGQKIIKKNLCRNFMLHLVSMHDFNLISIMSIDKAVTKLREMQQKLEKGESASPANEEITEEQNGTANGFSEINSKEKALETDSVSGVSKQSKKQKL
# T1 sequence (O75530 2-441 partner limits assumed): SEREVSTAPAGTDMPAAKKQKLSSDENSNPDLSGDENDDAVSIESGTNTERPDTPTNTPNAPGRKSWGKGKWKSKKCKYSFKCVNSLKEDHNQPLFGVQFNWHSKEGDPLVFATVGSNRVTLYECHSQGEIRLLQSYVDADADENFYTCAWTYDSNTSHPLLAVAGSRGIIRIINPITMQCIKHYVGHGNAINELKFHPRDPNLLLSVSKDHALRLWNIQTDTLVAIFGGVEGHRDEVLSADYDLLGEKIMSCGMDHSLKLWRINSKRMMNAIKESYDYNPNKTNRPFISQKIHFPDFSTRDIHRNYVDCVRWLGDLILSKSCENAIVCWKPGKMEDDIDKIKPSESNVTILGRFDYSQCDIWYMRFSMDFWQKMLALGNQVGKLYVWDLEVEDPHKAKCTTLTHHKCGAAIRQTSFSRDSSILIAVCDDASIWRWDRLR
row,SMILES,IC50 [nM]
1,"COC1(C(F)(F)F)CN(C2CCC(C3COc4c(Cl)cc(C(=O)NCc5c(C)cc(C)[nH]c5=O)c(C)c4O3)CC2)C1 (single isomer, unassigned) [Compound 69]",84.6
2,"CON(C)C1CCC(C2COc3c(Cl)cc(C(=O)NCc4c(C)cc(C)[nH]c4=O)c(C)c3O2)CC1 (single isomer, unassigned) [Compound 79]",2
3,Cc1cc(C)c(CNC(=O)c2ccc3c(c2C)COC(C)(C2CCC(N(C)C)CC2)O3)c(=O)[nH]1 (stereo not drawn) [Compound 4],7210
4,CSc1cc(C)[nH]c(=O)c1CNC(=O)c1cc(Cl)c2c(c1C)O[C@@H]([C@H]1CC[C@H](N3CC(OC4CC4)C3)CC1)CO2 [Compound 10],158
5,CSc1cc(C)[nH]c(=O)c1CNC(=O)c1cc(Cl)c2c(c1C)O[C@H](C1CCN(CC3CC3)CC1)CO2 [Compound 31],66.3
6,Cc1cc(C)c(CNC(=O)c2cc(Cl)c3c(c2C)O[C@H]([C@H]2CC[C@H](N4CC5COCC5C4)CC2)CO3)c(=O)[nH]1 (stereo partly drawn) [Compound 72],1250
7,Cc1cc(C)c(CNC(=O)c2cc(Cl)c3c(c2C)O[C@H]([C@H]2CC[C@@H](N4CC5COCC5C4)CC2)CO3)c(=O)[nH]1 (stereo partly drawn) [Compound 74],998
8,Cc1cc(C)c(CNC(=O)c2cc(Cl)c3c(c2C)OC(C2CCN(C(C)C)CC2)CO3)c(=O)[nH]1 (stereo not drawn) [Compound 82],85.1
9,Cc1cc(C)c(CNC(=O)c2cc(Cl)c3c(c2C)O[C@H](C2CCN(CC4COC4)CC2)CO3)c(=O)[nH]1 [Compound 87],780

# Further molecules by falling IC50, results first:
row,IC50 [nM],SMILES
1,59.3,"COC1(C(F)(F)F)CN(C2CCC(C3COc4c(Cl)cc(C(=O)NCc5c(C)cc(C)[nH]c5=O)c(C)c4O3)CC2)C1 (single isomer, unassigned) [Compound 68]"
2,47.6,"Cc1cc(C)c(CNC(=O)c2cc(Cl)c3c(c2C)OC(C2CCC(NC4CC(F)(F)C4)CC2)CO3)c(=O)[nH]1 (single isomer, unassigned) [Compound 67]"
3,41.8,"Cc1cc(C)c(CNC(=O)c2cc(Cl)c3c(c2C)OC(C2CCC(N4CC(F)C4)CC2)CO3)c(=O)[nH]1 (single isomer, unassigned) [Compound 71]"
4,29.7,"Cc1cc(C)c(CNC(=O)c2cc(Cl)c3c(c2C)OC(C2CCC(NC4CC(F)C4)CC2)CO3)c(=O)[nH]1 (single isomer, unassigned) [Compound 65]"
5,27.5,Cc1cc(C)c(CNC(=O)c2cc(Cl)c3c(c2C)OC(C2CCN(C)CC2)CO3)c(=O)[nH]1 (stereo not drawn) [Compound 1]
6,24.4,"Cc1cc(C)c(CNC(=O)c2cc(Cl)c3c(c2C)OC(C2CCC(NC4CC(F)(F)C4)CC2)CO3)c(=O)[nH]1 (single isomer, unassigned) [Compound 66]"
7,17.7,CSc1cc(C)[nH]c(=O)c1CNC(=O)c1cc(Cl)c2c(c1C)O[C@H]([C@H]1CC[C@@H](N3CC(OC4CC4)C3)CC1)CO2 [Compound 13]
8,16.6,COc1c(Cl)c2c(c(C)c1C(=O)NCc1c(C)cc(C)[nH]c1=O)O[C@@H](C1CCC(N(C)C)CC1)CO2 (mixture of isomers) [Compound 133]
9,11,Cc1cc(C)c(CNC(=O)c2cc(Cl)c3c(c2C)OC(C2CCN(C4COC4)CC2)CO3)c(=O)[nH]1 (stereo not drawn) [Compound 84]
10,8.2,Cc1cc(C)c(CNC(=O)c2cc(Cl)c3c(c2C)OC(C2CCN(CC4COC4)CC2)CO3)c(=O)[nH]1 (stereo not drawn) [Compound 83]
11,6.4,[2H]C([2H])([2H])OC1CN([C@H]2CC[C@H]([C@H]3COc4c(Cl)cc(C(=O)NCc5c(SC)cc(C)[nH]c5=O)c(C)c4O3)CC2)C1 [Compound 21]
12,4.3,CO[C@@H]1CCN([C@H]2CC[C@@H]([C@H]3COc4c(Cl)cc(C(=O)NCc5c(SC)cc(C)[nH]c5=O)c(C)c4O3)CC2)C1 [Compound 41]
13,4,CO[C@H]1CCN([C@H]2CC[C@@H]([C@H]3COc4c(Cl)cc(C(=O)NCc5c(SC)cc(C)[nH]c5=O)c(C)c4O3)CC2)C1 [Compound 39]

# Molecular target: T2, EZH1/SUZ/EED (Homo sapiens, UniProt O75530+Q15022+Q92800)
# T2 construct: purchased BPS 51006
# Assay: Inhibitory effect on EZH1 by the MTase-Glo method (Test Example 1)
# Assay type: biochemical
# Conditions: EZH1/SUZ/EED 25 nM, H3 peptide 10 μM, SAM 3 μM, 30° C. 3 h, read-out: Test Example 1 WT EZH1 IC50
# Procedure: as §1, §2
# T2 sequence (Q92800 2-747 limits assumed): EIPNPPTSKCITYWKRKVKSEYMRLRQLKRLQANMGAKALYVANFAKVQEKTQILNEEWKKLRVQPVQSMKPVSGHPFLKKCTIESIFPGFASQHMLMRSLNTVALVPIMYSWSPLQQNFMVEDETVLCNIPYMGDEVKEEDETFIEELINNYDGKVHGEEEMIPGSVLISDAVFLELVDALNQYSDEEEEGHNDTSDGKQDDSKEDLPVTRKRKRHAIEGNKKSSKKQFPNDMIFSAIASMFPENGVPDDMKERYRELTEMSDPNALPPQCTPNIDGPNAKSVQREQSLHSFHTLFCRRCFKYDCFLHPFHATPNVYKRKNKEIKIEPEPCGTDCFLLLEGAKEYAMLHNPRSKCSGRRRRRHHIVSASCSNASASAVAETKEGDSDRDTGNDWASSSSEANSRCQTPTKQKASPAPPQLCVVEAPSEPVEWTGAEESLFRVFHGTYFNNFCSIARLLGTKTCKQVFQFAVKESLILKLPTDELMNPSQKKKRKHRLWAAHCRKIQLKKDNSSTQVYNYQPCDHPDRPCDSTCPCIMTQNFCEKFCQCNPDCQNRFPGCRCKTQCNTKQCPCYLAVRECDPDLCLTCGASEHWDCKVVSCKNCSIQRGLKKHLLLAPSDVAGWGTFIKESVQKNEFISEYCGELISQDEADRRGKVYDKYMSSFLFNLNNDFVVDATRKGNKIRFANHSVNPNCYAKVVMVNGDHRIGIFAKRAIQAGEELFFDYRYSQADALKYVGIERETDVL
# T2 sequence (Q15022 2-739 partner limits assumed): as the sequence (Q15022 2-739 partner limits assumed) above
# T2 sequence (O75530 2-441 partner limits assumed): as the sequence (O75530 2-441 partner limits assumed) above
row,SMILES,IC50 [nM]
1,"COC1(C(F)(F)F)CN(C2CCC(C3COc4c(Cl)cc(C(=O)NCc5c(C)cc(C)[nH]c5=O)c(C)c4O3)CC2)C1 (single isomer, unassigned) [Compound 69]",879
2,CSc1cc(C)[nH]c(=O)c1CNC(=O)c1cc(Cl)c2c(c1C)O[C@H](C1CCN(CC3CC3)CC1)CO2 [Compound 31],491
3,Cc1cc(C)c(CNC(=O)c2cc(Cl)c3c(c2C)O[C@H]([C@H]2CC[C@H](N4CC5COCC5C4)CC2)CO3)c(=O)[nH]1 (stereo partly drawn) [Compound 72],> 10000
4,Cc1cc(C)c(CNC(=O)c2cc(Cl)c3c(c2C)O[C@H]([C@H]2CC[C@@H](N4CC5COCC5C4)CC2)CO3)c(=O)[nH]1 (stereo partly drawn) [Compound 74],> 10000

# Next, values leading:
row,IC50 [nM],SMILES
1,> 10000,"COC1(C(F)(F)F)CN(C2CCC(C3COc4c(Cl)cc(C(=O)NCc5c(C)cc(C)[nH]c5=O)c(C)c4O3)CC2)C1 (single isomer, unassigned) [Compound 68]"
2,367,"Cc1cc(C)c(CNC(=O)c2cc(Cl)c3c(c2C)OC(C2CCC(NC4CC(F)(F)C4)CC2)CO3)c(=O)[nH]1 (single isomer, unassigned) [Compound 67]"
3,564,"Cc1cc(C)c(CNC(=O)c2cc(Cl)c3c(c2C)OC(C2CCC(N4CC(F)C4)CC2)CO3)c(=O)[nH]1 (single isomer, unassigned) [Compound 71]"
4,641,"Cc1cc(C)c(CNC(=O)c2cc(Cl)c3c(c2C)OC(C2CCC(NC4CC(F)C4)CC2)CO3)c(=O)[nH]1 (single isomer, unassigned) [Compound 65]"
5,1300,Cc1cc(C)c(CNC(=O)c2cc(Cl)c3c(c2C)OC(C2CCN(C)CC2)CO3)c(=O)[nH]1 (stereo not drawn) [Compound 1]
6,687,"Cc1cc(C)c(CNC(=O)c2cc(Cl)c3c(c2C)OC(C2CCC(NC4CC(F)(F)C4)CC2)CO3)c(=O)[nH]1 (single isomer, unassigned) [Compound 66]"
7,584,COc1c(Cl)c2c(c(C)c1C(=O)NCc1c(C)cc(C)[nH]c1=O)O[C@@H](C1CCC(N(C)C)CC1)CO2 (mixture of isomers) [Compound 133]
8,18.9,[2H]C([2H])([2H])OC1CN([C@H]2CC[C@H]([C@H]3COc4c(Cl)cc(C(=O)NCc5c(SC)cc(C)[nH]c5=O)c(C)c4O3)CC2)C1 [Compound 21]
9,3.9,CO[C@@H]1CCN([C@H]2CC[C@@H]([C@H]3COc4c(Cl)cc(C(=O)NCc5c(SC)cc(C)[nH]c5=O)c(C)c4O3)CC2)C1 [Compound 41]
10,7.3,CO[C@H]1CCN([C@H]2CC[C@@H]([C@H]3COc4c(Cl)cc(C(=O)NCc5c(SC)cc(C)[nH]c5=O)c(C)c4O3)CC2)C1 [Compound 39]
